Reference: article PMC7372189 (Frontiers in Pharmacology, 2020)
Read-outs that look alike come from different tables or passages of the source.

Tests used:
TRPV1 channel = molecular target: T1, TRPV1 channel (Rattus norvegicus, UniProt O35433); test: Two-electrode voltage clamp (TEVC) in Xenopus oocytes expressing TRPV1 channels; type: cell-based; details: for maximal effect (Ix/Icapsaicin): Imax relative to current in saturating capsaicin
T1 construct: expressed in transfected cells; host or cells: Xenopus laevis oocytes injected with in vitro transcribed TRPV1 cRNA
T1 sequence (O35433 whole entry): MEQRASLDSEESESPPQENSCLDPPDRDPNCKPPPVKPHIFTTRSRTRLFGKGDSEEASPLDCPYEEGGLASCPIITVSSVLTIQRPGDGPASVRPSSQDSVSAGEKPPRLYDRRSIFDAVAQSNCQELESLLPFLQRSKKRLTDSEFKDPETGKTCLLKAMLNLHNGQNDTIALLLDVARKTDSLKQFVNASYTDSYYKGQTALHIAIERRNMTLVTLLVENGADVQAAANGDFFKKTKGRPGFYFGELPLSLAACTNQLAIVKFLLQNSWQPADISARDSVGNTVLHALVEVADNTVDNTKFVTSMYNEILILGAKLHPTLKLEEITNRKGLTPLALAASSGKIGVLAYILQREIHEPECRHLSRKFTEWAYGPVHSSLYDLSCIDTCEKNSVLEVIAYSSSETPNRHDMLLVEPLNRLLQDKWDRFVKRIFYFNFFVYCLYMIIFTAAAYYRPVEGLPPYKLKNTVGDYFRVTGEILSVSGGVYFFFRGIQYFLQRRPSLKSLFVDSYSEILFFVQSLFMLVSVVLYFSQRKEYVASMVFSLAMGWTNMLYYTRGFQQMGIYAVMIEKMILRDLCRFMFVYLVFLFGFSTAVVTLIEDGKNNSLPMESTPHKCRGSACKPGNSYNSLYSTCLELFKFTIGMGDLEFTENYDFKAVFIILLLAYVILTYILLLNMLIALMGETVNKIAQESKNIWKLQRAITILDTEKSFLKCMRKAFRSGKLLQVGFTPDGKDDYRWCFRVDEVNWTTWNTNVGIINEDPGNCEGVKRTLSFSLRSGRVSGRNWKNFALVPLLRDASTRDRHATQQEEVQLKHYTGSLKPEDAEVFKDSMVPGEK

[1] = tested on: tactile allodynia induced by intra-plantar carrageenan; test: Carrageenan model of inflammatory pain, tactile allodynia measured with von Frey filaments after topical application; type: in vivo, Sprague–Dawley rats; details: for Effect duration / Time of maximal analgesia / Time to first effect (first significant analgesic effect): after topical application; for Concentration at maximal analgesia / ED50 of maximal effect / Maximal percentage of analgesia attained: topical in cream; for ED50 of maximal effect: extrapolated from linear fit of %MPE at time of maximal analgesia; for Maximal percentage of analgesia attained: relative to cream (0%) and saline (100%) controls
Method: Male Sprague–Dawley rats (approximately 200–300 g body weight) were used. Food and water were supplied ad libitum and the animals were kept in a 12 h light–dark cycle in their home cages throughout the study. All procedures were in accordance with the U.S. National Institutes of Health guidelines and were approved by the bioethical Committee of the Universidad Andres Bello, Acta 11/2016.
2% λ-Carrageenan (Santa Cruz Biotechnology) was administered subcutaneously to induce tactile allodynia according to previous studies ([Yoshimura and Yonehara, 2001]; [Fehrenbacher et al., 2012]). Capsaicin was obtained from Sigma. Compounds 1, 2, and 3 were obtained from the National Cancer Institute. […] Novo base moisturizing cream (Charles Lasserre) was used as vehicle for all tested compounds including capsaicin and was used alone as vehicle control. The different concentrations used can be found in Table 3.
Rats were randomly assigned into the following groups for all compounds: EC50, 10-fold EC50, 100-fold EC50, 1,000-fold EC50, a control group treated with cream only and a control group for 2% λ-Carrageenan in which saline was injected instead of λ-Carrageenan.
The λ-Carrageenan model for inflammatory pain was used to induce mechanical allodynia lasting for less than 24 h, as reported elsewhere ([Yoshimura and Yonehara, 2001]; [Fehrenbacher et al., 2012]). In short, animals were injected with 100 µl of 2% λ-Carrageenan diluted in saline, or saline alone as vehicle control, into the left hind paw. One hour later, capsaicin or one of the three compounds dissolved in cream was administered on the plantar surface until fully absorbed using a cotton swab. Then the rat was placed in the test chamber and acclimated for 5 min.
The day before the experiments, tactile thresholds were measured in all animals to attain a baseline and to ensure normal sensitivity to tactile stimuli. On the day of the experiment, the cream that contained the compounds was applied only once, 5 min before the evaluation began, and the effects of each compound was measured over time, once per hour, for eight consecutive hours. Von Frey filaments were used to measure plantar mechanical sensitivity and inflammatory allodynia. Briefly, the rats were placed into the arena with a mesh floor and after the 5-min habituation, were tested using von Frey filaments. The following von Frey filaments were applied against the plantar surface: 52.2 g (512 mN), 26.1 g (256 mN), 13.0 g (128 mN), 6.52 g (64 mN), 3.26 g (32 mN). To measure tactile response, the up-down method was used ([Dixon, 1980]), with slight modifications: the starting filament (13.0 g) was applied perpendicularly to the plantar surface of the hind paw until it buckled for 3 s or until the rat withdrew its foot. If the rat responded to the filament, the procedure was repeated with the smaller filament (6.52 g) and then repeated sequentially until the smallest filament that elicits a response was identified. […] To confirm that the identified filament was the smallest that could elicit a response, the filament was changed to the next smaller filament with no response and then increased again to the filament that produced a response. The responses (X) and lack of responses (0) were recorded to obtain the tabular values from [Dixon (1980)], corresponding to:
Data from von Frey filaments was obtained as a dose–response curve for each compound over the course of 8 h. All groups were tested for normality and a two-way ANOVA with Bonferroni post hoc test was used to analyze differences. Differences were considered significant when p < 0.05 and averages are shown ± standard error of the mean (SE).
The paw withdrawal threshold (PWT) for each time point was calculated by using the following equation proposed by [Dixon, 1980]: […]

[2] = higher concentrations than 10xEC50

Structure (SMILES)	maximal effect (Ix/Icapsaicin) (TRPV1 channel)	Effect duration [1] [h]	Time of maximal analgesia [1] [h]	Time to first effect (first significant analgesic effect) [1]	Concentration at maximal analgesia [1] [µM]	ED50 of maximal effect [1] [nM]	Maximal percentage of analgesia attained [1] [%]	EC50 (TRPV1 channel; read-out: EC50) [nM]	Analgesic effect relative to vehicle, significance of tactile thresholds (von Frey) ([1]; Time 1 h, x1000 EC50)	Analgesic effect relative to vehicle, significance of tactile thresholds (von Frey) ([1]; Time 2 h, x100 EC50)	Analgesic effect relative to vehicle, significance of tactile thresholds (von Frey) ([1]; Time 2 h, x1000 EC50)	Analgesic effect relative to vehicle, significance of tactile thresholds (von Frey) ([1]; Time 3 h, x1000 EC50)	Analgesic effect relative to vehicle, significance of tactile thresholds (von Frey) ([1]; Time 4 h, x100 EC50)	Analgesic effect relative to vehicle, significance of tactile thresholds (von Frey) ([1]; Time 4 h, x1000 EC50)	Analgesic effect relative to vehicle, significance of tactile thresholds (von Frey) ([1]; Time 7 h, x100 EC50)	Analgesic effect relative to vehicle, significance of tactile thresholds (von Frey) ([1]; Time 7 h, x1000 EC50)	Analgesic effect relative to vehicle, significance of tactile thresholds (von Frey) ([1]; Time 8 h, x100 EC50)	Analgesic effect relative to vehicle, significance of tactile thresholds (von Frey) ([1]; Time 8 h, x1000 EC50)	Analgesic effect relative to vehicle, significance of tactile thresholds (von Frey) ([1]; Time 9 h, x100 EC50)	Analgesic effect relative to vehicle, significance of tactile thresholds (von Frey) ([1]; Time 9 h, x1000 EC50)	other results
COc1cc(CNC(=O)CCCC/C=C/C(C)C)ccc1O [Capsaicin, reference compound]	1	2	4	Hour 3 h	44	86900	86														Time to first effect (first significant analgesic effect) ([1]; listed as capsaicin): 3 h
COc1cc(C2C(C(=O)OC3CCCC3)=C(C)NC3=C2C(=O)CC(c2ccc(OC)c(OC)c2)C3)ccc1O (stereo not drawn) [Compound 1]	0.8	8	3		53	37700	83	53 ± 6	** (**p < 0.01)	** (**p < 0.01)	*** (***p < 0.001)	**** (****p < 0.0001)	* (*p < 0.05)	*** (***p < 0.001)	*** (***p < 0.001)	*** (***p < 0.001)	** (**p < 0.01)	*** (***p < 0.001)	** (**p < 0.01)	** (**p < 0.01)	Duration of significant analgesic effect ([1]; 10xEC50): 8 h; Time of first significant analgesic effect compared to vehicle ([1]; 10xEC50): 1 h; Analgesic effect relative to vehicle, significance of tactile thresholds (von Frey) ([1]; Time 1 h, x10 EC50): * (*p < 0.05); Analgesic effect relative to vehicle, significance of tactile thresholds (von Frey) ([1]; Time 1 h, x100 EC50): * (*p < 0.05); Analgesic effect relative to vehicle, significance of tactile thresholds (von Frey) ([1]; Time 2 h, x10 EC50): **** (****p < 0.0001); Analgesic effect relative to vehicle, significance of tactile thresholds (von Frey) ([1]; Time 3 h, x10 EC50): **** (****p < 0.0001); Analgesic effect relative to vehicle, significance of tactile thresholds (von Frey) ([1]; Time 3 h, x100 EC50): ** (**p < 0.01); Analgesic effect relative to vehicle, significance of tactile thresholds (von Frey) ([1]; Time 4 h, x10 EC50): *** (***p < 0.001); Analgesic effect relative to vehicle, significance of tactile thresholds (von Frey) ([1]; Time 5 h, x10 EC50): **** (****p < 0.0001); Analgesic effect relative to vehicle, significance of tactile thresholds (von Frey) ([1]; Time 5 h, x100 EC50): ** (**p < 0.01); Analgesic effect relative to vehicle, significance of tactile thresholds (von Frey) ([1]; Time 5 h, x1000 EC50): *** (***p < 0.001); Analgesic effect relative to vehicle, significance of tactile thresholds (von Frey) ([1]; Time 6 h, x10 EC50): ** (**p < 0.01); Analgesic effect relative to vehicle, significance of tactile thresholds (von Frey) ([1]; Time 6 h, x100 EC50): ** (**p < 0.01); Analgesic effect relative to vehicle, significance of tactile thresholds (von Frey) ([1]; Time 6 h, x1000 EC50): *** (***p < 0.001); Analgesic effect relative to vehicle, significance of tactile thresholds (von Frey) ([1]; Time 7 h, x10 EC50): ** (**p < 0.01); Analgesic effect relative to vehicle, significance of tactile thresholds (von Frey) ([1]; Time 8 h, x10 EC50): * (*p < 0.05); Duration of significant analgesic effect [1, 2]: ≥ 9 h; Time of first significant analgesic effect compared to vehicle [1, 2]: 1 h
Cc1cccc(NC(=O)C2CCCN(C(=O)OCc3ccccc3)C2)c1 (stereo not drawn) [Compound 2]	0.73	3	3		53	6800	100	53 ± 4.3	*** (***p < 0.001)	* (*p < 0.05)	** (**p < 0.01)	*** (***p < 0.001)	* (*p < 0.05)	* (*p < 0.05)	** (**p < 0.01)	** (**p < 0.01)		** (**p < 0.01)			Time of first significant analgesic effect compared to vehicle ([1]; 100xEC50): 2 h; Duration of significant analgesic effect ([1]; higher concentrations than 100xEC50): 3 h
COc1ccc(C(=O)NNC(=O)CSc2nnc(-c3ccc(C)cc3)n2C)cc1 [Compound 3]	0.89	2	7	Hour 7 h	92	139300	75	92 ± 10								* (*p < 0.05)	* (*p < 0.05)	* (*p < 0.05)	* (*p < 0.05)	* (*p < 0.05)	Time to first effect (first significant analgesic effect) ([1]; listed as compound 3): 7 h
C=C(C)[C@]12C[C@@H](C)[C@@]34O[C@](Cc5ccccc5)(O[C@@H]1[C@@H]3C=C(COC(=O)Cc1ccc(O)c(OC)c1)C[C@]1(O)C(=O)C(C)=C[C@@H]41)O2 [Resiniferatoxin, reference compound]																					EC50 (TRPV1 channel): 0.7 nM
